Measured values published in US9814703B2, “Methods for treating cancer by activation of BMP signaling” (The Board of Trustees of the Leland Stanford Junior …, priority 2013, dated 2017).

Key:
[1] = tested on: primary human bladder stromal cells; test: Hh pathway stimulation of primary human bladder stromal cells, gene expression by quantitative RT-PCR; type: cell-based; details: 24 hours; for Expression of BMP4 increased as compared to the unstimulated control / Expression of BMP5 increased as compared to the unstimulated control / Expression of GLI1 increased as compared to the unstimulated control: serum-starved, SAG 200 nM or Shh conditioned medium (ShhN)
Text: (§1) To determine whether Hh signaling regulates expression of BMP4 and BMP5 in human bladder, we first examined the expression of Hh pathway components in primary human bladder fibroblasts and epithelial cells. […] To evaluate response to the Hh signal, we treated cultured human bladder stromal and urothelial cells with ShhN protein or with the chemical pathway agonist SAG^24. […] Concomitant with the increase in GLI1 mRNA upon stimulation of the cultured human bladder stromal fibroblasts, we noted an increase in levels of BMP4 and BMP5 transcripts (FIG. 4B).
For BBN-induced bladder carcinogenesis, a 0.1% concentration of BBN was provided to mice ad libitum for 4-6 months. For Smo deletion experiments, a transgene expressing tamoxifen-activated Cre was used to selectively inactivate a conditional allele of Smo. To activate the BMP pathway, Alzet osmotic pumps were implanted subcutaneously to administer FK506 to mice exposed to BBN. Quantitative RT-PCR was used for measurement of RNA levels in samples isolated from the human and mouse bladder samples. For in vitro cultures, primary human bladder urothelial and stromal cells were treated with FK506 for 12 hours, or serum-starved and treated with SAG or Shh conditioned medium with or without cyclopamine for 24 hours prior to gene expression analyses.
(§2) Bladder samples were snap frozen in liquid nitrogen, homogenized with a mortar and pestle, and RNA extracted with the RNeasy Plus Mini kit (Qiagen). For quantitative RT-PCR of mRNA transcripts, first-strand cDNA was made using the SuperScript III First-Strand Synthesis SuperMix (Invitrogen 18080-400). Quantitative RT-PCR was performed using iQ SYBR Green Supermix (Bio-Rad 170-8880) and the Bio-Rad iCycler.
Primary human bladder urothelial cells (ScienCell 4320) and bladder stromal fibroblasts (ScienCell 4330) were cultured in Urothelial Cell Medium (ScienCell 4321) and Fibroblast Medium (ScienCell 2301) respectively to sub-confluency. Cells were then starved for 12 hours, followed by addition of Shh conditioned medium in the absence or in the presence of cyclopamine (3 uM, Toronto Research Chemicals), or treated with the Shh pathway agonist SAG (200 nM, Millipore) for 24 hours. In separate experiments, cells were treated with 20 ng/ml FK506 (Cayman Chemical) or DMSO for 12 hours. Following treatment, RNA was extracted using the Trizol reagent.

[2] = tested on: primary human bladder urothelial cells; test: Hh pathway stimulation of primary human bladder urothelial cells, gene expression by quantitative RT-PCR; type: cell-based; details: SAG 200 nM or ShhN, 24 hours
Text: as §1
For BBN-induced bladder carcinogenesis, a 0.1% concentration of BBN was provided to mice ad libitum for 4-6 months. For Smo deletion experiments, a transgene expressing tamoxifen-activated Cre was used to selectively inactivate a conditional allele of Smo. […] Quantitative RT-PCR was used for measurement of RNA levels in samples isolated from the human and mouse bladder samples. […]
as §2, with “iCycler. […]” for “iCycler.”

[3] = tested on: primary human bladder urothelial cells; test: BMP pathway activation in cultured urothelial cells, BMP target gene expression by quantitative RT-PCR; type: cell-based; details: 20 ng/ml FK506, 12 hours
Text: As Bmp4 and Bmp5 secreted from stromal cells have the potential to act on urothelium, we tested the ability of cultured urothelial cells to respond to BMP pathway activation. For this purpose we selected FK506, an FDA-approved drug recently shown to activate BMP pathway at concentrations below those required for its immunosuppressant effects^27. […] Loss of Shh expression in human invasive carcinomas, as noted previously (FIG. 1A), would be expected to disrupt this signal feedback; this expectation was confirmed by a dramatic reduction of BMP4 and BMP5 expression in human invasive urothelial carcinoma as compared to benign bladder (FIG. 4D).
For BBN-induced bladder carcinogenesis, a 0.1% concentration of BBN was provided to mice ad libitum for 4-6 months. […] Quantitative RT-PCR was used for measurement of RNA levels in samples isolated from the human and mouse bladder samples. […]
as §2, with “iCycler. […]” for “iCycler.”

[4] = tested on: BBN-induced bladder cancer; test: BBN-induced bladder carcinogenesis in mice, progression to invasive carcinoma (histopathology); type: in vivo
Text: To investigate the role of Bmp pathway activity in bladder tumor progression and to test the possibility that Bmp pathway activation might stimulate urothelial differentiation, which in turn might impede tumor progression, we exposed mice to BBN for 4 months, then initiated treatment with FK506 for another month while also continuing exposure to BBN (FIG. 5A). We have previously noted that mice exposed to BBN for 4 months develop pre-malignant lesions indistinguishable from human carcinoma-in-situ but not invasive carcinoma, which requires further BBN exposure^6.
For BBN-induced bladder carcinogenesis, a 0.1% concentration of BBN was provided to mice ad libitum for 4-6 months. For Smo deletion experiments, a transgene expressing tamoxifen-activated Cre was used to selectively inactivate a conditional allele of Smo. To activate the BMP pathway, Alzet osmotic pumps were implanted subcutaneously to administer FK506 to mice exposed to BBN. Quantitative RT-PCR was used for measurement of RNA levels in samples isolated from the human and mouse bladder samples. […]
A 0.1% concentration of BBN (TCI America) was dissolved in drinking water, and BBN-containing water was provided to mice ad libitum for 4-6 months in a dark bottle. […] Bladders were collected and analyzed after 4 to 6 months of BBN administration. […]

[5] = cyclopamine 3 uM added to Hh pathway stimulation

Row | Compound | Expression of BMP4 increased as compared to the unstimulated control [1] [fold] | Expression of BMP5 increased as compared to the unstimulated control [1] [fold] | Expression of GLI1 increased as compared to the unstimulated control [1] [fold] | Response of urothelial cells to Hh pathway stimulation (GLI1 expression) [2] | Effect of added cyclopamine on the stimulated increase of BMP4 and BMP5 expression [1, 5] | Effect of added cyclopamine on the stimulated increase of GLI1 expression [1, 5] | Expression of BMP target gene CDKN1B increased as compared to the DMSO control [3] [fold] | Expression of BMP target gene ID4 increased as compared to the DMSO control [3] [fold] | Progression of bladder cancer in mice ([4]; low-dose FK506, murine BBN model) | Development of invasive carcinoma in treated mice ([4]; mice exposed to BBN 5 months, FK506 0.05 mg/kg/day by subcutaneous osmotic pump during the final month, cohort of 10 mice (control 7 of 9 invasive))
1 | ShhN: ShhN protein, Hh ligand, applied as Shh conditioned medium | 3.9 | 1.6 | 1.6 | did not respond |  |  |  |  |  | 
2 | CC1=C2C[C@H]3[C@@H](CC=C4C[C@@H](O)CC[C@@]43C)[C@@H]2CC[C@]12O[C@@H]1C[C@H](C)CN[C@H]1[C@H]2C [cyclopamine] |  |  |  |  | reversed | reversed |  |  |  | 
3 | C=CC[C@@H]1/C=C(\C)C[C@H](C)C[C@H](OC)[C@H]2O[C@@](O)(C(=O)C(=O)N3CCCC[C@H]3C(=O)O[C@H](/C(C)=C/[C@@H]3CC[C@@H](O)[C@H](OC)C3)[C@H](C)[C@@H](O)CC1=O)[C@H](C)C[C@@H]2OC [FK506] |  |  |  |  |  |  | 2.4 | 1.6 | halts progression | no invasive carcinoma was observed
4 | CNC1CCC(N(Cc2cccc(-c3ccncc3)c2)C(=O)c2sc3ccccc3c2Cl)CC1 (centres unmarked) [SAG] | 5.8 | 2 | 5.4 | did not respond |  |  |  |  |  | 
